Several values for one entry are separate records, joined by “and”; a condition that tells them apart may be missing. Equal entries are not always repeated.
What was measured:
recombinant VCP = recombinant VCP (Homo sapiens, UniProt P55072); test: ATPase activity of recombinant VCP in vitro (modified molybdate assay, [γ-32P]ATP); type: biochemical
Experimental: We measured ATPase activities by modifying the molybdate assay, which was as described previously. In the assay, 1 μg of whole cell soluble lysate of neuronally differentiated PC12 cells, or 500 ng recombinant VCP protein, was incubated in 20 μl of the ATPase assay buffer (20 mM HEPES (pH 7.4), 50 mM KCl, 5 mM MgCl2) with 100 μM [γ-^32P]ATP (18.5 GBq/mmol) (PerkinElmer) at 37°C for 20 min. After incubation, the reaction was quenched by addition of 200 μl of 8% ice-cold trichloroacetic acid solution with 1 mM K2HPO4, and then 50 μl of solution A (3.75% ammonium molybdate, 0.02 M silicotungstic acid in 3 N H2SO4) and 300 μl of n-butyl acetate were added to the reaction. The samples were mixed well and centrifuged at 12,000 × g for 1 min. Then, 200 μl aliquots from the upper organic phases were taken and their radioactivity was determined with a liquid scintillation counter for β-radiation, which determined the amounts of ^32P released.

cellular VCP functions = test: immunoblot of ubiquitinated proteins, CHOP (ER stress) and LC3 (autophagy) in cultured cells; type: cell-based
Text: Figure 1 Structures and characterization of KUSs, novel VCP modulators. (a) Structures and IC50 values of KUS11, KUS31, KUS69, KUS94, KUS121, and KUS187. […] (b) ATPase activity assays of recombinant human […], comparing KUSs and DBeQ. (c) Immunoblot analysis of ubiquitinated proteins, an ER stress marker (CHOP), and an autophagy indicator (LC3), comparing KUSs and DBeQ. As a control, MG132, a proteasome inhibitor, was used for the analysis. Actin served as a loading control. Complete scans of the different blots are presented in Supplementary Fig. 7. (d) Comparison of KUSs and DBeQ for cell death-inducing activities. HeLa cells were treated with 50 μM DBeQ or KUSs for 24 hours. […]

[1] = system: essentially all tested cultured cells; test: cellular toxicity on cultured cells; type: cell-based; settings: up to 50 μM
C57BL/6 wild-type mice = test: electroretinogram of adult wild-type mice administered KUS; type: in vivo, mouse
Experimental: Electroretinogram recording was performed to assess the visual function of rd10 mice at ages of 21, 25, 29, and 33 days. Mice were dark-adapted overnight before anesthetization. Electroretinograms were recorded using a gold loop corneal electrode with a light-emitting diode (Mayo Corp., Inazawa, Japan). A reference electrode was placed in the mouth and a ground electrode was inserted to the anus. Stimuli were produced with a light emitting diode stimulator (Mayo Corp.). The electroretinogram response signals were amplified, digitized at 10 kHz with a band-pass filter of 0.3 to 500 Hz, and analyzed (PowerLab 2/25; AD instruments, New South Wales, Australia). The a- and b-wave amplitudes and a-wave latency of the mixed cone and rod response (ISCEV (International Society for Clinical Electrophysiology of Vision) standard; scotopic 3.0)[34] were analyzed.
Supplementary Figure 6 (a) Time-dependent changes of b-wave amplitude in dark-adapted electroretinograms in non-treated C57BL/6 wild-type mice. b-wave […]
= 0.004. (b, c) a-wave (b) and b-wave (c) amplitude of adult C57BL/6 wild-type mice administered saline or KUS121 for 7 days. […]
amplitudes of a-and b-waves between mice administered saline or KUS121 (a-wave […]
92.9 vs. 420.8 ± 52.6, P = 0.86, t-test). Error bars indicate SD.
Lane 1, 1µM MG132; lane 2, control; lane 3, 5µM DBeQ; lane 4, 10µM DBeQ; lane 5, 15µM DBeQ; lane 6: KUS11; lane 7, KUS31; lane 8, KUS69; lane 9, KUS 94; lane 10, […]
Lane 1, Tm(-); lane 2, control; lane 3, KUS69; lane 4, KUS94; lane 5, KUS121; lane 6, KUS187; lane 7, Tm(-); lane 8, control; lane 9, 0.1mM ATP; lane 10, 0.3mM ATP; lane 11, 1mM ATP; lane 12, 3mM methylpyruvate; lane 13, 10mM methylpyruvate.

Chain of recombinant VCP (P55072 whole entry, species assumed): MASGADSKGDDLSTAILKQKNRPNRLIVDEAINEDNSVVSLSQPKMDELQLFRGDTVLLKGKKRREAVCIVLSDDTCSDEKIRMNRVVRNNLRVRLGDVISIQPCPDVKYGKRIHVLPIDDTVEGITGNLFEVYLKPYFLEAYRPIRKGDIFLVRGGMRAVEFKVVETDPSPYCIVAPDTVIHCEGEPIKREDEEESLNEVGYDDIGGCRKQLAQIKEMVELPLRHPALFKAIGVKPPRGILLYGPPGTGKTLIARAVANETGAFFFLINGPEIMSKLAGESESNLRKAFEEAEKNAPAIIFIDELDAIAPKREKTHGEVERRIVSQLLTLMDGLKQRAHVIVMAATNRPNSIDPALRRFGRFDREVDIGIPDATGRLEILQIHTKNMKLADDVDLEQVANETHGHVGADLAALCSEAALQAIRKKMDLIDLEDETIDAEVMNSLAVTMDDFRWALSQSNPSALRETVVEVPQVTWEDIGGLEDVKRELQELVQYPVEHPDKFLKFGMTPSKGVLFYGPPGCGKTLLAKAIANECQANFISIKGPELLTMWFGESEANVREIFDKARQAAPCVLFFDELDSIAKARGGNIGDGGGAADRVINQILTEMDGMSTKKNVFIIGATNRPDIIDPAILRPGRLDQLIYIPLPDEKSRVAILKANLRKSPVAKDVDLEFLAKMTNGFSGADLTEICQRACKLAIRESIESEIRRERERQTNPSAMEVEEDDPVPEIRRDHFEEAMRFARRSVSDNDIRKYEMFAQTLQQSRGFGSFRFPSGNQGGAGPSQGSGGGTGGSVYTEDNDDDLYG

In the case of Cc1cc(F)ccc1-c1ccc(/N=N/c2cc(S(=O)(=O)O)c3ccccc3c2N)cn1 [KUS121], the IC50 (recombinant VCP) is reported as 200 to 300 nM and 330 nM, the “induction of accumulation of ubiquitinated proteins, ER stress (CHOP), autophagy (LC3)” value (cellular VCP functions) is reported as “did not induce any of these phenotypes” and the apparent cellular toxicity [1] is reported as “did not manifest any apparent cellular toxicity”. For the same compound, the a-wave amplitude (C57BL/6 wild-type mice; adult C57BL/6 wild-type mice, KUS121 for 7 days, saline 203.5 ± 41.6, P = 0.56, in µV (unit assumed)) was 195.8 ± 30.2, the b-wave amplitude (C57BL/6 wild-type mice; adult C57BL/6 wild-type mice, KUS121 for 7 days, saline 425.8 ± 92.9, P = 0.86, in µV (unit assumed)) was 420.8 ± 52.6 and the “change in the amplitude of a- and b-waves vs saline” value (C57BL/6 wild-type mice; adult wild-type mice) was “no significant differences”.

— publication PMC4122966, “Novel VCP modulators mitigate major pathologies of rd10, a mouse model of retinitis pigmentosa” (Scientific Reports, 2014)
